Assay results: PubChem BioAssay (NCI)
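Where inhibition never reached the appropriate level, the endpoint shown equals the highest concentration tested. Otherwise, values were interpolated linearly from a five-concentration, 48-hour dose response in 96-well plates. TGI denotes the concentration required for complete inhibition of growth.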

Columns and labels:
Assay in all cases: inhibition of tumour cell growth, NCI panel, 48 h
[1] = tested on: A549 NSCLC
[2] = tested on: EKVX NSCLC
[3] = tested on: NCI-H460 lung
[4] = tested on: MDA-MB-435
[5] = tested on: COLO 205 colon
[6] = tested on: SF-539 CNS
[7] = tested on: NCI/ADR-RES ovarian
[8] = tested on: SNB-75 CNS
[9] = tested on: HS 578T breast
[10] = tested on: T-47D breast

Compound | TGI [1] [µM] | TGI [2] [µM] | TGI [3] [µM] | TGI [4] [µM] | TGI [5] [µM] | TGI [6] [µM] | TGI [7] [µM] | TGI [8] [µM] | TGI [9] [µM] | TGI [10] [µM]
COc1ccc(N=N/C(=N/NC(=O)c2ccccc2)c2ccc(N(CCC#N)CCC#N)cc2C)cc1 | > 100 | > 100 | > 100 | > 100 | > 100 | 70 | > 100 | > 100 | 75.2 | > 100
Oc1ccc(SCc2cc(O)c(O)c(O)c2)cc1 | > 100 | > 100 | 36.7 | > 100 | 36.9 | > 100 | 58.5 | > 100 | > 100 | > 100
Cc1[nH]c2ccccc2c1C=Nc1ccc(N=Cc2c(C)[nH]c3ccccc23)cc1 | > 100 | > 100 | > 100 | 51.7 | 27.3 | > 100 | > 100 | > 100 | > 100 | > 100
Cc1sc(/N=C/c2c[nH]c3ccccc23)c(C#N)c1C | > 100 | > 100 | > 100 | > 100 | > 100 | > 100 | > 100 | > 100 | > 100 | > 100
CSc1c(C#N)c(=O)[nH]c2n[nH]c(C)c12 | > 100 | > 100 | > 100 | > 100 | > 100 | > 100 | > 100 | > 100 | > 100 | > 100
CN(NC(=O)CCCl)C1=NCCCCN1 | > 100 | > 100 | > 100 | > 100 | > 100 | > 100 | > 100 | > 100 | > 100 | > 100
O=C(OCc1ccccc1)C1(N2CN(C3(C(=O)OCc4ccccc4)CCCC3)CN(C3(C(=O)OCc4ccccc4)CCCC3)C2)CCCC1 | > 10 | > 10 | > 10 | > 10 | > 10 | > 10 | > 10 | > 10 | > 10 | > 10
COc1ccc2c(c1)n([O-])c(C#N)c(N1CCN(c3ccc([N+](=O)[O-])cc3)CC1)[n+]2=O | > 100 | > 100 | > 100 | 97.3 | – | 6.23 | 11.8 | 66.2 | > 24.4 | 14.8
CC(C)(C)C1(COC(=O)c2ccc(N)cc2)COC1 | > 100 | > 100 | > 100 | > 100 | > 100 | > 100 | > 100 | > 100 | > 100 | > 100
NC(=O)c1ccc2c(c1)S(=O)(=O)c1ccccc1C2=O | > 100 | > 100 | > 100 | > 100 | > 100 | > 100 | > 100 | > 100 | > 100 | > 100
COc1cc(CC2c3cc(OC)c(OC)cc3CCN2C)c(Oc2cc3c(cc2OC)-c2c(O)c(OC)cc4c2C(C3)N(C)CC4)cc1OC (configuration not stated) | > 100 | 53.1 | 44.8 | 94.3 | 42.5 | 30.3 | 43.9 | 31.3 | 45.2 | 55
COC(OC)C1OC(CO)C(n2ccc(N)nc2=O)C1O (configuration not stated) | > 100 | > 100 | > 100 | > 100 | > 100 | > 100 | > 100 | > 100 | > 100 | > 100
C=C(CC[C@@H](C(=O)O)[C@H]1[C@H](O)C[C@@]2(C)C3=CC[C@@H](C(=C)C)[C@](C)(CCC(=O)O)C3=CC[C@]12C)C(C)C | 35.1 | 32.3 | 34.7 | 33.5 | 44.3 | 37.7 | 42.3 | 36.5 | 42.2 | 50.7
C=CCSC1=N/C(=C\c2ccccc2)C(=O)N1CC=C | > 100 | 77 | > 100 | > 100 | > 100 | > 100 | > 100 | 89.2 | > 89.4 | 98.6
COC(=O)n1c(=O)n(-c2ccccc2)c(=O)n1C(=O)OC | > 100 | > 100 | > 100 | > 100 | > 100 | > 100 | > 100 | > 100 | > 100 | > 100
O=S1(=O)c2ccccc2C(=NO)c2ccccc21 | > 100 | > 100 | > 100 | > 100 | > 100 | > 100 | > 100 | > 100 | > 100 | > 100
NC(=S)Nc1[nH]c(=S)nc2c1SC1=N/C(=C\c3ccco3)C(=O)N12 | > 100 | > 100 | > 100 | > 100 | > 100 | > 100 | > 100 | > 100 | > 100 | > 100
N#Cc1c(N2CCCC2)ncn(Cc2ccccc2)c1=O | > 100 | > 100 | > 100 | > 100 | > 100 | > 100 | > 100 | > 100 | > 100 | > 100
CCCCCCCCCCCCCCCCCCNc1ccn(C2OC(COP(=O)(O)OCC3OC(n4cc(C)c(=O)[nH]c4=O)CC3N=[N+]=[N-])C(O)C2O)c(=O)n1 (configuration not stated) | > 100 | 48.5 | 36.6 | 63.2 | 30.7 | 33.8 | 50 | 58.5 | 49.8 | > 100
O=C1/C(=C/c2ccccc2[N+](=O)[O-])N=C(c2ccccc2)N1C1Nc2cc3c(cc2S1)NC(N1C(=O)/C(=C/c2ccccc2[N+](=O)[O-])N=C1c1ccccc1)S3 (configuration not stated) | > 100 | > 100 | > 100 | > 100 | – | > 100 | 97.4 | > 100 | > 100 | > 100
COc1ccc(-c2c(N)n(-c3cccc(C(=O)O)c3)c(=O)c3cc([N+](=O)[O-])ccc23)cc1 | > 100 | > 100 | > 100 | > 100 | – | > 100 | > 100 | > 100 | > 100 | > 100
CN(C)CCNC(=O)c1cccc2nc3c(nc12)-c1ccccc1C3=O | 37.7 | 48.6 | 18.9 | 32.1 | 58.5 | 27 | 39.3 | 31 | 44 | 37.4
O=C1c2c(nc3ccccc3c2-c2ccccc2)CN1Nc1ccccn1 | > 100 | > 100 | > 83.2 | > 100 | > 100 | 99.5 | > 100 | > 92.8 | 67.4 | > 100
CCOC(=O)CNC(=O)C(C)NC(=O)C(NC(=O)CC(c1ncc[nH]1)c1ncc[nH]1)C(C)CC (configuration not stated) | > 100 | > 100 | > 100 | > 100 | > 100 | > 100 | > 100 | > 100 | > 100 | > 100
CCOC(=O)/C=C(/C(=O)OCC)n1cc(C)c(=O)n(Cc2cn(COCCOC(C)=O)nn2)c1=O | > 100 | 31.3 | > 63.1 | 52.7 | > 55.2 | 38.1 | 67.9 | > 100 | > 78.3 | > 64.3
O=C1Cc2c([nH]c3ccc(Br)cc23)-c2ccccc2N1 | > 100 | > 100 | > 100 | > 100 | > 100 | > 27.8 | > 100 | > 100 | > 100 | > 100
O=[N+]([O-])c1ccc(N=Nc2c(O)c(S(=O)(=O)O)cc3cc(S(=O)(=O)O)ccc23)cc1 | > 100 | > 100 | > 100 | > 100 | > 100 | > 100 | > 100 | > 100 | > 100 | > 100
O=C1C=C(Br)c2c(Br)sc(Br)c21 | > 77.3 | 37.3 | > 61.8 | 42.9 | 15.9 | 18.2 | > 53.8 | 39.7 | > 100 | 31.4
CNC(=O)c1cc(NC(=O)N(CCC#N)CCN(C(=O)N[C@@H](Cc2ccccc2)C(=O)N[C@@H](CC(C)C)C(=O)NC)c2ccccc2)ccc1OC | > 100 | > 100 | 50.9 | > 100 | > 100 | > 66.3 | > 100 | > 100 | > 100 | > 85.9
